# “And” between values parts separate entries of the source, which are not always exact repeats. Equal values may be shown once. Non-standard residues stand in square brackets, D forms with d. Residues, ends and D or L forms follow the SMILES beside them. No end group written: not given here. PEG2000 = polyethylene glycol 2000 attached at the N-terminus
# How the values were obtained:
# [1] = Peptide stability in human plasma, LC/MS; type: in vitro ADME; settings: for stability in human plasma / Concentration: 800 ng/mL, 37° C.; for stability in human plasma: 1 h; for Concentration / Percent of Nominal: human plasma; for Percent of Nominal: nominal 800 ng/mL
# Protocol: (§1) human plasma (Lot #BCE012312PM1, K3 EDTA) was obtained from BioChemed Services (Winchester, VA) and was stored at −80° C. Young adult male Swiss-Webster mice were obtained from Taconic Farms, and were anesthetized with carbon dioxide, and exsanguinated by cardiac puncture. Blood was collected in to tubes containing K2 EDTA and cooled in ice. Plasma was prepared by centrifugation for 10 min at 3000 g and 4° C. Mouse plasma and blood was used on the day of harvest.
# (§2) Quenched matrix (human and mouse plasma) samples were prepared from one volume of plasma precipitated with three volumes of 9:1 acetonitrile:water at 4° C. and centrifuged for 10 min at 3000 g and 4° C., and the supernatant was used to prepare standard curve samples. A stock solution of 20 mg/mL Ac-DWLP-amide (SEQ ID NO: 133, Ac=acetyl group, amide=amide group) and 20 mg/mL Ac-dWlP-amide (SEQ ID NO: 132, DWLP with D-amino acids D and L indicated by lower case) was prepared in distilled water. Each peptide stock (20 mg/mL) was used to prepare a dilution in phosphate buffered saline (PBS) at 1 mg/mL and those samples were further diluted in PBS to prepare 100 and 50 μg/mL solutions. The 100 and 50 μg/mL solutions were added to the quenched matrix supernatant at concentrations equivalent to 0, 300, 1000, 3000, and 10000 ng/mL pre-quench plasma concentrations to prepare standard curve samples. Triplicate aliquots (100 μL) of each standard curve sample were diluted in 100 μL water prior to analysis by LC/MS.
# (§3) The two peptides were formulated in PBS (40 μg/mL), and incubated with human and mouse plasma at 37° C. in polypropylene tubes at a concentration of 800 ng/mL in duplicate. Incubation aliquots (100 μL) were removed at 0, 15, 30, and 60 min and immediately quenched by the addition of 300 μL 9:1 acetonitrile:water, vortexed and centrifuged for 10 min at 3000 g and 4° C. Then 100 μL of each supernatant was diluted with 100 μL PBS prior to analysis by LC/MS.
# (§4) Processed standard curve and incubation samples were analyzed using the method described in Table 1. The concentration of peptide in plasma was determined by extrapolation from the standard curve.
# [2] = Peptide stability in mouse plasma, LC/MS; type: in vitro ADME, Swiss-Webster mice; settings: for Concentration: 800 ng/mL, 37° C.; for Percent of Nominal: nominal 800 ng/mL
# Protocol: as §1, §2, §3, §4
# [3] = Peptide in plasma prepared from spiked mouse blood (partition into red blood cells), LC/MS; type: in vitro ADME, Swiss-Webster mice; settings: for Concentration in Mouse Plasma Prepared From Mouse Blood Incubated with Each Peptide: 800 ng/mL in chilled mouse blood, plasma prepared after five minutes; for partition between plasma fraction and red blood cells: mouse blood, 800 ng/mL
# Protocol: as §1
# The two peptides were formulated as for plasma and introduced into mouse blood chilled in an ice bath at a concentration of 800 ng/mL in duplicate. Five minutes after adding to blood, plasma was prepared and duplicate aliquots were extracted (as above) and analyzed by LC/MS.
# as §4
# [4] = mouse, in vivo; cited from earlier work
# [5] = system: primary ovarian cancer cells; experiment: Intraperitoneal metastatic ovarian cancer model, bioluminescence; type: in vivo, CB-17 SCID mice; settings: 2 mg/kg QOD from day 17
# Protocol: For metastatic ovarian cancer cell injections, 5×10^6 viable primary ovarian cancer cells were injected into CB-17 SCID mice intraperitoneally in a volume of 0.1 ml. Tumor growth was monitored by live animal bioluminescence imaging (Xenogen) once per week. For in vivo determination of the metastatic burden, mice were anaesthetized and injected intraperitoneally with 75 mg/kg of D-luciferin (100 uL of 30 mg/mL in PBS). Metastatic growth was monitored over time using bioluminescence imaging performed with mice in a supine position 5 min after D-luciferin injection with a Xenogen IVIS system coupled to Living Image acquisition and analysis software (Xenogen). For BLI plots, photon flux was calculated for each mouse by using the same circular region of interest encompassing the abdomen of the mouse.
# To determine whether DWLPK (SEQ ID NO: 4) could inhibit or regress existing ovarian metastases 5×10^6 primary ovarian cancer cells were injected intraperitoneally into SCID mice. After 17 days treatment was initiated with DWLPK (SEQ ID NO: 4) at a dose of 40 mg/kg QD, cisplatin at a dose of 2 mg/kg QOD, a combination of DWLPK (SEQ ID NO: 4) and cisplatin at the same doses, or PBS (control). It was observed that DWLPK (SEQ ID NO: 4) treatment completely regressed the metastases in 11/12 after 30 days and the regressed the metastases in the remaining mice by 99% (FIG. 20).
# [6] = system: Tsp-1 and p53 expression in prostate fibroblasts; experiment: Tsp-1 and p53 expression in prostate fibroblasts treated with peptides, western blot; type: cell-based; settings: western blot; 10 ug/mL, 16 hours
# Protocol: Methods of assaying the effects of a polypeptide described herein on Tsp-1 and p53 expression are described herein. Briefly, a control Psap alongside a test polypeptide, is applied to a cell culture of prostate fibroblasts. The conditioned media from PC3M-LN4 (LN4) and PC3 cells are used as controls, with PC3 as positive/stimulating control and LN4 as negative/inhibiting controls. After a period of incubation (˜16 h), the cells are harvested, rinsed, and lysed. The lysates are analyzed for the level of Tsp-1 and p53 expression by western blot analyses, with β-actin as the internal lysate protein loading control.
# These peptides were used to treat prostate and lung fibroblasts in vitro at a concentration of 10 ug/mL for 16 hours in ATCC-specified media supplemented with 0.1% FBS. Tsp-1 and p53 expression was analyzed by western blot as described previously (Kang, Y., et al., (2003) Cancer Cell 3:537-549.)
# Tsp-1 expression = settings: previously shown; cited from earlier work
# [7] = system: Tsp-1 and p53 expression in lungs; experiment: Tumor-free mice given PC3M-LN4 conditioned media plus peptide; Tsp-1/p53 in tissue by western blot; type: in vivo, C57Bl6 mice; settings: PC3M-LN4 CM plus 30 mg/kg pegylated peptide daily, 9 days; compared with PC3 conditioned media
# Protocol: For tumor-free analysis C57Bl6 mice were treated with 200 uL of PC3M-LN4 media alone or in combination with peptides described above at dose of 30 mg/kg/day for 5 days. After treatment the animals were sacrificed and the lungs were harvested, lysed and analyzed for Tsp-1 and p53 protein levels as described previously (Kang et al).
# It was sought to determine whether there was a smaller domain within saposin A that contained the p53/Tsp-1 stimulating activity. […] C57Bl6 mice (5-6 wks old) were injected daily with 300 uL of serum free DMEM, conditioned media (CM) from non-metastatic PC3 cells, CM from metastatic PC3M-LN4 cells and PC3M-LN4 CM plus 30 mg/kg of the pegylated 6 amino acid polypeptide (PEG2000-CDWLPK (SEQ ID NO: 46)) or 30 mg/kg of the pegylated 18 amino acid polypeptide (PEG2000-[…] (SEQ ID NO: 47)). After 9 days the mice were euthanized and the lungs and livers harvested and either fixed in formalin or lysed for Western blot analysis.
# Finally, the effect of substituting D-amino acids at different residues of the 4-amino acid peptide was analyzed. By Western blot analysis it was observed that substituting the first and third or second and fourth residues, in combination, had no effect on the Tsp-1 stimulating activity in vitro. These peptides were then tested in the tumor-free animal model described above. The normal 4-amino acid peptide and the D-amino acid substituted peptides were injected in combination with conditioned media from PC3M-LN4 cells in adult C57Bl6 mice for 4 days at a dose of 10 or 30 mg/kg/day via i.p. injection. Mice were sacrificed 24 hours after the treatment on day 4. The lungs of these mice were harvested and analyzed the Tsp-1 expression by Western blot analysis. […]
# Methods: 18 C57Bl6 mice were injected with Ac-dWlP-amide (SEQ ID NO: 132) at a dose of 30 mg/kg in a volume of 100 μL via intraperitoneal (i.p) injections in serum starved conditioned media from PC3M-LN4 prostate cancer cells. […] The relative intensity of the Tsp-1 (normalized to β-Actin) bands were determined using a Bio-Rad Chemi-Doc XRS system.
compound,measurement,setting,value
CC(=O)N[C@@H](CC(=O)O)C(=O)N[C@@H](Cc1c[nH]c2ccccc12)C(=O)N[C@@H](CC(C)C)C(=O)N1CCC[C@H]1C(N)=O [Ac-DWLP-amide] (Ac-DWLP-NH2),stability in human plasma,[1],good stability
same,Concentration,[1]; 0 min,649 ng/mL and 784 ng/mL
same,Percent of Nominal,[1]; 0 min,81.1% and 98.0%
same,Concentration,[1]; 15 min,760 ng/mL and 817 ng/mL
same,Percent of Nominal,[1]; 15 min,95.0% and 102.1%
same,Concentration,[1]; 30 min,538 ng/mL and 607 ng/mL
same,Percent of Nominal,[1]; 30 min,67.3% and 75.9%
same,Concentration,[1]; 60 min,634 ng/mL and 616 ng/mL
same,Percent of Nominal,[1]; 60 min,79.3% and 77.0%
same,Concentration,[2]; 0 min,869 ng/mL and 955 ng/mL
same,Percent of Nominal,[2]; 0 min,108.6% and 119.4%
same,Concentration,[2]; 15 min,669 ng/mL and 605 ng/mL
same,Percent of Nominal,[2]; 15 min,83.6% and 75.6%
same,Concentration,[2]; 30 min,428 ng/mL and 400 ng/mL
same,Percent of Nominal,[2]; 30 min,53.5% and 50.0%
same,Concentration,[2]; 60 min,398 ng/mL and 463 ng/mL
same,Percent of Nominal,[2]; 60 min,49.8% and 57.9%
same,Concentration in Mouse Plasma Prepared From Mouse Blood Incubated with Each Peptide,[3],1580 ng/mL and 1510 ng/mL and 1530 ng/mL and 1610 ng/mL
same,partition between plasma fraction and red blood cells,[3],remain primarily in the plasma fraction and do not partition into red blood cells
CC(=O)N[C@H](CC(=O)O)C(=O)N[C@@H](Cc1c[nH]c2ccccc12)C(=O)N[C@H](CC(C)C)C(=O)N1CCC[C@H]1C(N)=O [Ac-dWlP-amide] (Ac-[dD]W[dL]P-NH2),stability in human plasma,[1],stable
same,Concentration,[1]; 0 min,1050 ng/mL and 779 ng/mL
same,Percent of Nominal,[1]; 0 min,131.3% and 97.4%
same,Concentration,[1]; 15 min,941 ng/mL and 875 ng/mL
same,Percent of Nominal,[1]; 15 min,117.6% and 109.4%
same,Concentration,[1]; 30 min,863 ng/mL and 818 ng/mL
same,Percent of Nominal,[1]; 30 min,107.9% and 102.3%
same,Concentration,[1]; 60 min,1100 ng/mL and 901 ng/mL
same,Percent of Nominal,[1]; 60 min,137.5% and 112.6%
same,Concentration,[2]; 0 min,858 ng/mL and 859 ng/mL
same,Percent of Nominal,[2]; 0 min,107.3% and 107.4%
same,Concentration,[2]; 15 min,520 ng/mL and 462 ng/mL
same,Percent of Nominal,[2]; 15 min,65.0% and 57.8%
same,Concentration,[2]; 30 min,541 ng/mL and 496 ng/mL
same,Percent of Nominal,[2]; 30 min,67.6% and 62.0%
same,Concentration,[2]; 60 min,446 ng/mL and 469 ng/mL
same,Percent of Nominal,[2]; 60 min,55.8% and 58.6%
same,Concentration in Mouse Plasma Prepared From Mouse Blood Incubated with Each Peptide,[3],1420 ng/mL and 1380 ng/mL and 1060 ng/mL and 1010 ng/mL
same,partition between plasma fraction and red blood cells,[3],remain primarily in the plasma fraction and do not partition into red blood cells
CO[C@@H]1[C@H](OC(=O)NC(=O)CCl)CC[C@]2(CO2)[C@H]1[C@@]1(C)O[C@@H]1CC=C(C)C [TNP-470],development of obesity in mice,[4],prevent diet-induced and genetic obesity
same,vascularity in the adipose tissue,[4],reduced vascularity in the adipose tissue
"N.N.[Cl][Pt][Cl] [cisplatin, reference compound]",course of tumors under cisplatin treatment,[5],developed resistance to cisplatin treatment after 20 days and began growing again
"CDWLPKPNMSASC (also: cyclized, mode not given here) [13-amino acid cyclized peptide spanning residues 35-47 of saposin A]",stimulation of the expression of p53 and Tsp-1 in prostate fibroblasts,[6],able to stimulate the expression of p53 and Tsp-1
same,stimulating Tsp-1 expression in vitro and in vivo,Tsp-1 expression,capable of stimulating Tsp-1 expression in vitro and in vivo
LEKTCDWLPKPNMSASCKEI,stimulating Tsp-1 expression in vitro and in vivo,Tsp-1 expression,capable of stimulating Tsp-1 expression in vitro and in vivo
PEG2000-CDWLPK,stimulating the expression of Tsp-1 in the lung and liver,[7],"as, or more, effective than PC3 conditioned media"
PEG2000-EKTCDWLPKPNMSASCKE (cysteine pairing not given here),stimulating the expression of Tsp-1 in the lung and liver,[7],"as, or more, effective than PC3 conditioned media"
